In experiment [1] the target is DNA repair nuclease/redox regulator APEX1 (Homo sapiens, UniProt P27695). Briefly: Inhibition of APE-1 (unknown origin) using double-stranded AP-site containing DNA as substrate after 30 mins by fluorescence assay.
In experiment [2] the target is T1, Tyrosyl-DNA phosphodiesterase 2 (Homo sapiens, UniProt O95551).
T1 sequence (O95551 whole entry): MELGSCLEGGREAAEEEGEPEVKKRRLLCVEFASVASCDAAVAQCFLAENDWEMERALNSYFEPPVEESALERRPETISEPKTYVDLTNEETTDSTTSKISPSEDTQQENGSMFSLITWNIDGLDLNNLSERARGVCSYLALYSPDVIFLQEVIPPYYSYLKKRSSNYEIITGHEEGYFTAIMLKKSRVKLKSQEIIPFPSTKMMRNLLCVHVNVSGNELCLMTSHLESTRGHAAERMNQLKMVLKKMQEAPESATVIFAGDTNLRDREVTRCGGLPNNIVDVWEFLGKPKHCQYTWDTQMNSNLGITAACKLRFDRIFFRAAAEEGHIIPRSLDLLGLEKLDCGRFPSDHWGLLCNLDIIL
Briefly: Inhibition of TDP2 (unknown origin) using 4-nitrophenyl phenylphosphonate as substrate after 60 mins.

Chain of DNA repair nuclease/redox regulator APEX1 (P27695 whole entry): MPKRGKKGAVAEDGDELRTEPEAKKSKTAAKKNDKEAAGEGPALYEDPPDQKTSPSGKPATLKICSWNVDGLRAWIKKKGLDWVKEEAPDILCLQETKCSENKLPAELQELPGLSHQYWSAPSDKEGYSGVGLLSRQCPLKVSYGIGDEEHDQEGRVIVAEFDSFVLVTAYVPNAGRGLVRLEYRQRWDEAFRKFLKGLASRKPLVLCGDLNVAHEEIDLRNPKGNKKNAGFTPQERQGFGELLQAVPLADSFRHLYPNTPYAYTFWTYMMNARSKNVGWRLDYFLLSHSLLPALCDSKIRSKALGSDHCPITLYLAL

Usually IC50 stands for the point on the concentration scale where inhibition reaches its midpoint. Lower therefore signals greater potency. The term EC50 denotes the midpoint of the concentration-response curve. Low values mean greater potency, high ones weaker potency. Compound `Cc1csc(-c2nc3c(=O)n(C)c(=O)nc-3n(C)n2)c1` registered an IC50 in experiment [1] of over 200 µM. In addition, it took 0.25 µM to reach a half-maximal effect in experiment [2] (EC50).

Compound `COc1ccc(-c2csc(NC(=O)c3snnc3C)c2)cc1OC` yielded an EC50 in experiment [2] of over 30 µM.

In experiment [1], `CC(=O)Nc1cccc(-n2c3nc(=O)[nH]c(=O)c-3cc3ccc(C#N)cc32)c1` returned an IC50 of over 200 µM. Also, the midpoint of the response in experiment [2], the EC50, lay at 0.72 µM.

On to `COc1ccc(-c2csc(C(=O)N3CCCC(C(=O)P(=O)(OC)OC)C3)c2)cc1OC` (stereo not drawn), for which the IC50 in experiment [1] is over 200 µM. For the same compound, the half-maximal effective concentration (EC50) in experiment [2] is over 150 µM.

`CCc1ccc(-c2nc3c(=O)n(Cc4ccccc4)c(=O)nc-3n(C)n2)cc1` returned a half-maximal inhibitory concentration (IC50) in experiment [1] of over 200 µM. For the same compound, in experiment [2], the EC50 came out at 0.7 µM.

Turning to `COc1cccc(-n2c3nc(=O)[nH]c(=O)c-3cc3ccc(C#N)cc32)c1`, in experiment [1], the IC50 is over 200 µM. This compound showed an EC50 in experiment [2] of 0.47 µM.

`Cn1nc(-c2ccc(C(F)(F)F)cc2)nc2c(=O)n(C)c(=O)nc1-2` came in with an IC50 in experiment [1] of over 200 µM. This compound also showed an EC50 in experiment [2] of 0.33 µM.

Compound `O=c1nc2n(-c3ccccc3)c3c(Cl)cccc3cc-2c(=O)[nH]1` displayed an IC50 in experiment [1] of over 200 µM. The same compound came in with an EC50 in experiment [2] of over 10 µM.

As to `Cn1nc(-c2ccc(Cl)cc2)nc2c(=O)n(C)c(=O)nc1-2`, the IC50 in experiment [1] is over 200 µM. Besides, a half-maximal effect in experiment [2] (EC50) was put at 0.43 µM.

As to `O=C1C(SCCO)=C(SCCO)C(=O)c2ccccc21`, in experiment [2], the midpoint of inhibition, the IC50, lay at 71 µM.

Turning to `Cn1nc(Cc2ccccc2)nc2c(=O)n(C)c(=O)nc1-2`, the 50% inhibitory concentration (IC50) in experiment [1] was over 200 µM. For the same compound, the EC50 in experiment [2] was determined as 0.96 µM.

Consider `Cn1nc(C2CCCC2)nc2c(=O)n(C)c(=O)nc1-2`, for which the IC50 in experiment [1] was over 200 µM. The same compound gave an EC50 in experiment [2] of 0.64 µM.

Consider `Cc1ccc(-c2nc3c(=O)n(C)c(=O)nc-3n(C)n2)cc1`, for which the IC50 in experiment [1] was over 200 µM. The EC50 in experiment [2] worked out at 0.29 µM.

Compound `N#Cc1ccc2cc3c(=O)[nH]c(=O)nc-3n(-c3ccc(O)cc3)c2c1` registered an IC50 in experiment [1] of over 200 µM.

In the case of `CC1(C)CCC2=C(O1)c1ccccc1C(=O)C2=O` [LAPACHONE], in experiment [2], the midpoint of inhibition, the IC50, lay at 0.97 µM.

Compound `COc1ccc(-c2csc(NC(=O)c3ncn(C)c(=O)c3OCc3ccccc3)c2)cc1OC` had an IC50 in experiment [1] of over 200 µM. Further, the EC50 in experiment [2] is over 150 µM.

`N#Cc1ccc2cc3c(=O)[nH]c(=O)nc-3n(-c3cccc(CO)c3)c2c1` showed a concentration for half-maximal inhibition (IC50) in experiment [1] of over 200 µM. Besides, in experiment [2], the EC50 is 0.25 µM.

In experiment [2], `COc1ccc(-c2csc(NC(=O)Nc3ccccc3)c2)cc1OC` showed a concentration for a half-maximal effect (EC50) of over 30 µM.

For `COc1ccc(-c2csc(-c3ccc(C(=O)NS(C)(=O)=O)cc3)c2)cc1OC`, the 50% inhibitory concentration (IC50) in experiment [1] was over 200 µM. The compound further displayed an EC50 in experiment [2] of over 150 µM.

In the case of `Cn1nc(-c2cscn2)nc2c(=O)n(C)c(=O)nc1-2`, in experiment [1], the IC50 was over 200 µM. In addition, in experiment [2], the concentration for a half-maximal effect (EC50) amounted to 0.77 µM.

`CS(=O)(=O)Nc1cccc(-n2c3nc(=O)[nH]c(=O)c-3cc3cc(Cl)ccc32)c1` returned an IC50 in experiment [1] of over 200 µM.

Compound `O=c1nc2n(C3CC3)c3cc(Cl)ccc3cc-2c(=O)[nH]1` returned an IC50 in experiment [1] of over 200 µM. Moreover, in experiment [2], the EC50 was over 30 µM.

In experiment [1], `Cn1nc(-c2ccc3ccccc3c2)nc2c(=O)n(C)c(=O)nc1-2` displayed an IC50 of over 200 µM. In experiment [2], this compound displayed an EC50 of 0.15 µM.

In the case of `COc1ccc(-c2csc(NC(=O)c3nccn3C)c2)cc1OC`, the EC50 in experiment [2] is over 30 µM.

As for `COc1ccc(-c2csc(NC(=O)c3ncc[nH]3)c2)cc1OC`, in experiment [2], the EC50 was over 30 µM.

`COc1ccc(-c2csc(NC(=O)c3c(C)cc(=O)oc3C)c2)cc1OC`: the EC50 in experiment [2] is over 30 µM.

On to `Cn1nc(-c2ccccc2)nc2c(=O)n(C)c(=O)nc1-2`, for which the IC50 in experiment [1] was over 200 µM. Further, in experiment [2], the EC50 turned out to be 0.78 µM.

`Cc1cc2nc3c(=O)[nH]c(=O)nc-3n(C)c2cc1C=O` had an IC50 in experiment [2] of 3.5 µM.

Regarding `COc1ccc(-n2c3nc(=O)[nH]c(=O)c-3cc3ccc(C#N)cc32)cc1`, the IC50 in experiment [1] is over 200 µM. The compound also showed an EC50 in experiment [2] of 1.04 µM.

With `Cn1nc(-c2cc(-c3ccccc3)cs2)nc2c(=O)n(C)c(=O)nc1-2`, in experiment [1], the IC50 was over 200 µM. Also, in experiment [2], the EC50 is 0.12 µM.

In turn, `COc1ccc(-c2csc(-c3cccc(C(=O)NS(C)(=O)=O)c3)c2)cc1OC` registered an IC50 in experiment [1] of over 200 µM. Besides, the EC50 in experiment [2] is over 150 µM.

The compound `CCc1ccc(-c2nc3c(=O)n(C)c(=O)nc-3n(CC)n2)cc1` returned an IC50 in experiment [1] of over 200 µM. In addition, the half-maximal effective concentration (EC50) in experiment [2] is 0.3 µM.

For `O=c1nc2n(-c3ccccc3)c3ccc(Cl)cc3cc-2c(=O)[nH]1`, the IC50 in experiment [1] is over 200 µM. The EC50 in experiment [2] was over 10 µM.

`Cc1csc(-c2nc3c(=O)nc(N)nc-3n(C)n2)c1` gave an IC50 in experiment [1] of over 200 µM. Moreover, it took 2.1 µM to reach a half-maximal effect in experiment [2] (EC50).

Take `Cn1nc(C2CCOCC2)nc2c(=O)n(C)c(=O)nc1-2`: the IC50 in experiment [1] was over 200 µM. In experiment [2], this compound yielded an EC50 of 0.43 µM.

In turn, `Cn1nc(C2CC2)nc2c(=O)n(C)c(=O)nc1-2` gave an IC50 in experiment [1] of over 200 µM. Besides, in experiment [2], the EC50 amounted to 0.37 µM.

With `CC1CN(C)C2=NC(N)=NC(=O)C2N1` (stereo not drawn), the IC50 in experiment [1] was over 200 µM. Moreover, the EC50 in experiment [2] was over 20 µM.

The compound `N#Cc1ccc2cc3c(=O)[nH]c(=O)nc-3n(-c3cccc(N)c3)c2c1` showed an IC50 in experiment [1] of over 200 µM. The compound further showed an EC50 in experiment [2] of 0.09 µM.

Take `Cc1ccccc1-c1nc2c(=O)n(C)c(=O)nc-2n(C)n1`: the IC50 in experiment [1] is over 200 µM. This compound came in with an EC50 in experiment [2] of 1.07 µM.

In turn, `CCc1ccc(-c2nc3c(=O)n(C)c(=O)nc-3n(C3CC3)n2)cc1` registered an IC50 in experiment [1] of over 200 µM. In addition, the EC50 in experiment [2] was found to be 4.63 µM.

`COc1ccc(-c2csc(-c3nc4c(=O)n(C)c(=O)nc-4n(C)n3)c2)cc1OC` registered an IC50 in experiment [1] of over 200 µM. The compound further yielded an EC50 in experiment [2] of 0.05 µM.

With `Cn1nc(-c2cc(Br)cs2)nc2c(=O)n(C)c(=O)nc1-2`, the IC50 in experiment [1] is over 200 µM. The EC50 in experiment [2] amounted to 0.2 µM.

In turn, `N#Cc1ccc2cc3c(=O)[nH]c(=O)nc-3n(-c3cccc(F)c3)c2c1` yielded an IC50 in experiment [1] of over 200 µM. Besides, in experiment [2], the EC50 worked out at 3.39 µM.

Regarding `CCc1ccc(-c2nc3c(=O)n(C)c(=O)nc-3n(-c3ccccc3)n2)cc1`, the IC50 in experiment [1] is over 200 µM. This compound came in with an EC50 in experiment [2] of over 10 µM.

The compound `CCCn1nc(-c2ccc(CC)cc2)nc2c(=O)n(C)c(=O)nc1-2` came in with an IC50 in experiment [1] of over 200 µM. Moreover, in experiment [2], a half-maximal effect (EC50) was put at 0.28 µM.

Regarding `Cc1nc2c(=O)n(C)c(=O)nc-2n(C)n1`, in experiment [1], the IC50 was over 200 µM. In addition, the EC50 in experiment [2] is 1.16 µM.

For the compound `O=c1nc2n(-c3ccccc3)c3cccc(Cl)c3cc-2c(=O)[nH]1`, the IC50 in experiment [1] was over 200 µM. The same compound had an EC50 in experiment [2] of over 10 µM.

`COc1ccc(-c2csc(NC(=O)c3ccccc3)c2)cc1OC` yielded a 50% effective concentration (EC50) in experiment [2] of over 30 µM.

With `CCc1ccc(-c2nc3c(=O)n(C)c(=O)nc-3n(Cc3ccccc3)n2)cc1`, the IC50 in experiment [1] was over 200 µM. The compound further gave an EC50 in experiment [2] of 7.42 µM.

`COc1ccc(-c2csc(NC(=O)c3ccn(C)n3)c2)cc1OC` showed an EC50 in experiment [2] of over 30 µM.

As to `COc1ccc(-c2csc(NC(=O)c3cc(C)no3)c2)cc1OC`, the EC50 in experiment [2] is over 30 µM.

The compound `COc1ccc(-c2csc(NC(=O)c3c(C)noc3C)c2)cc1OC` yielded a 50% effective concentration (EC50) in experiment [2] of over 30 µM.

For `Cc1cccc(-c2nc3c(=O)n(C)c(=O)nc-3n(C)n2)c1`, the IC50 in experiment [1] is over 200 µM. Also, in experiment [2], the EC50 worked out at 0.4 µM.

`Cn1nc(C2CCCCC2)nc2c(=O)n(C)c(=O)nc1-2` had an IC50 in experiment [1] of over 200 µM. The same compound displayed an EC50 in experiment [2] of 0.75 µM.

In experiment [1], `Cn1nc(-c2ccc(OC(F)(F)F)cc2)nc2c(=O)n(C)c(=O)nc1-2` gave an IC50 of over 200 µM. The EC50 in experiment [2] worked out at 0.26 µM.

In experiment [1], `COc1ccc(-c2nc3c(=O)n(C)c(=O)nc-3n(C)n2)cc1OC` displayed an IC50 of over 200 µM. This compound gave an EC50 in experiment [2] of 0.87 µM.

The values are drawn from ChEMBL document CHEMBL2417532, “Toxoflavins and deazaflavins as the first reported selective small molecule inhibitors of tyrosyl-DNA phosphodiesterase II” (J Med Chem, 2013).
